Test: xn = mol fraction of the nth substance listed

CCCC[P+](CCCC)(CCCC)CCCC.F[B-](F)(F)F + CC#N + C1COCO1
298.15 K, 100 kPa
Conditions | viscosity [mPa·s]
x1 = 0.0005495, x2 = 0.8436 | 0.41
x1 = 0.0005755, x2 = 0.6431 | 0.471
x1 = 0.0006287, x2 = 0.3754 | 0.532
x1 = 0.0008217, x2 = 0.8434 | 0.414
x1 = 0.0008656, x2 = 0.6429 | 0.476
x1 = 0.0009366, x2 = 0.3753 | 0.537
x1 = 0.001098, x2 = 0.8432 | 0.418
x1 = 0.001156, x2 = 0.6427 | 0.481
x1 = 0.00125, x2 = 0.3751 | 0.543
x1 = 0.001375, x2 = 0.8429 | 0.422
x1 = 0.001445, x2 = 0.6425 | 0.486
x1 = 0.001564, x2 = 0.375 | 0.548
x1 = 0.001651, x2 = 0.8427 | 0.426
x1 = 0.00174, x2 = 0.6423 | 0.491
x1 = 0.001878, x2 = 0.3749 | 0.554
x1 = 0.001927, x2 = 0.8425 | 0.43
x1 = 0.00203, x2 = 0.6421 | 0.496
x1 = 0.002191, x2 = 0.3748 | 0.56

N#C[C-](C#N)C#N.OCC[n+]1ccccc1 + c1ccsc1
101 kPa
Conditions | viscosity [mPa·s]
293.15 K, x1 = 0.7041 | 52.2
293.15 K, x1 = 1 | 137
298.15 K, x1 = 0.901 | 67.1
303.15 K, x1 = 0.4996 | 19.1
303.15 K, x1 = 0.901 | 50.9
318.15 K, x1 = 0.8044 | 21.1
323.15 K, x1 = 0.6 | 12.2
328.15 K, x1 = 0.7041 | 12.6
328.15 K, x1 = 0.901 | 17.9
333.15 K, x1 = 0.4996 | 7.57
333.15 K, x1 = 0.6 | 9.12
338.15 K, x1 = 0.4042 | 5.4
338.15 K, x1 = 0.4996 | 6.54
338.15 K, x1 = 0.7041 | 9.43
343.15 K, x1 = 0.4996 | 5.74
343.15 K, x1 = 0.8044 | 9.9

CCCCCCCCCCCC[N+](C)(C)Cc1ccccc1.O=S(=O)([N-]S(=O)(=O)C(F)(F)F)C(F)(F)F + CCCCO
101 kPa
Conditions | viscosity [mPa·s]
298.15 K, x1 = 1 | 1425
303.15 K, x1 = 0.3015 | 34.1
308.15 K, x1 = 0.3015 | 27.3
308.15 K, x1 = 1 | 683
313.15 K, x1 = 0.7485 | 198
318.15 K, x1 = 0.1507 | 7.45
318.15 K, x1 = 0.4494 | 37.6
328.15 K, x1 = 0.9164 | 159
333.15 K, x1 = 0.1507 | 4.83
333.15 K, x1 = 0.4494 | 20.6
333.15 K, x1 = 0.594 | 40.9
338.15 K, x1 = 0.7485 | 63
338.15 K, x1 = 1 | 118
343.15 K, x1 = 0.7485 | 52.4
348.15 K, x1 = 0.594 | 25.2

CCCCCCCCCCCCCCCC[n+]1ccccc1.[Cl-] + OCC(O)CO + O
electrical conductivity [S/m], 100 kPa
Conditions | 293.15 K | 298.15 K | 303.15 K | 308.15 K
x1 = 3.75e-06, x2 = 0.01019 | 0.0022 | 0.0024 | 0.0025 | 0.0029
x1 = 3.92e-06, x2 = 0.02128 | 0.0022 | 0.0023 | 0.0024 | 0.0032
x1 = 4.1e-06, x2 = 0.03338 | 0.0019 | 0.0022 | 0.0026 | 0.0032
x1 = 4.29e-06, x2 = 0.04664 | 0.0019 | 0.0022 | – | 0.0032
x1 = 7.51e-06, x2 = 0.01019 | 0.004 | 0.0042 | 0.0046 | 0.0052
x1 = 7.84e-06, x2 = 0.02128 | 0.0035 | 0.0039 | 0.0043 | 0.0054
x1 = 8.2e-06, x2 = 0.03338 | 0.0031 | 0.0037 | 0.0043 | 0.0049
x1 = 8.59e-06, x2 = 0.04664 | 0.003 | 0.0036 | 0.0044 | 0.0048
x1 = 1.126e-05, x2 = 0.01019 | 0.0058 | – | 0.0065 | 0.0076
x1 = 1.176e-05, x2 = 0.02128 | – | 0.0054 | 0.0064 | 0.0077
x1 = 1.23e-05, x2 = 0.03338 | 0.0043 | 0.0052 | 0.0059 | 0.0068
x1 = 1.288e-05, x2 = 0.04664 | 0.004 | 0.005 | 0.0058 | 0.0065
x1 = 1.502e-05, x2 = 0.01019 | 0.0076 | 0.0076 | 0.0085 | –
x1 = 1.568e-05, x2 = 0.02128 | 0.0063 | – | 0.0084 | –
x1 = 1.639e-05, x2 = 0.03338 | 0.0056 | 0.0066 | 0.0077 | 0.0088
x1 = 1.718e-05, x2 = 0.04664 | 0.0052 | 0.0063 | 0.0072 | 0.0083
x1 = 1.877e-05, x2 = 0.01019 | 0.0087 | 0.0092 | – | –
x1 = 1.96e-05, x2 = 0.02128 | 0.0076 | 0.0087 | – | –
x1 = 2.049e-05, x2 = 0.03338 | 0.0069 | 0.0081 | 0.0093 | –
x1 = 2.147e-05, x2 = 0.04664 | 0.0063 | 0.0078 | 0.0086 | –
x1 = 2.253e-05, x2 = 0.01019 | 0.0094 | – | – | –
x1 = 2.351e-05, x2 = 0.02128 | 0.0083 | 0.0096 | – | –
x1 = 2.459e-05, x2 = 0.03338 | 0.0079 | 0.0089 | – | –
x1 = 2.577e-05, x2 = 0.04664 | 0.0073 | 0.0089 | 0.0097 | –
x1 = 2.743e-05, x2 = 0.02128 | 0.0089 | – | – | –
x1 = 2.869e-05, x2 = 0.03338 | 0.0086 | 0.0095 | – | –
x1 = 3.006e-05, x2 = 0.04664 | 0.0079 | 0.0095 | – | –
x1 = 3.135e-05, x2 = 0.02128 | 0.0095 | – | – | –
x1 = 3.279e-05, x2 = 0.03338 | 0.0092 | – | – | –
x1 = 3.436e-05, x2 = 0.04664 | 0.0084 | – | – | –
x1 = 3.688e-05, x2 = 0.03338 | 0.0098 | – | – | –
x1 = 3.865e-05, x2 = 0.04664 | 0.0089 | – | – | –
x1 = 4.295e-05, x2 = 0.04664 | 0.0094 | – | – | –

OCCN(CCO)CCO + CCCC[n+]1ccn(C)c1.F[B-](F)(F)F
Conditions | viscosity [mPa·s]
303.15 K, 101 kPa, x1 = 1 | 400

c1ccsc1 + CCCCCCCC[n+]1ccc2ccccc2c1.O=S(=O)([N-]S(=O)(=O)C(F)(F)F)C(F)(F)F
Conditions | viscosity [mPa·s]
348.15 K, 101 kPa, x1 = 1 | 0.34

Source: the CheMixHub ionic liquid set
